The values that follow come from ChEMBL document CHEMBL4308854, “Novel indole-thiazolidinone conjugates: Design, synthesis and whole-cell phenotypic evaluation as a novel class of antimicrobial agents” (Eur J Med Chem, 2018).

Broadly, the MIC is the least concentration at which growth counts as inhibited.

The test system of one data set is HCT-15. Put plainly: Growth inhibition of human HCT15 cells assessed as cell growth at 10^-5 M incubated for 48 hrs by sulforhodamine B assay relative to control. On the set-up: scale not given: the % may be the effect or the level left. The data set is classed as cell-based. The note with it: hct-15, 48 h, 10 µM. In general terms: The SRB assay estimates cell density from bound dye.

Another data set concerns SN12C. Put plainly: Growth inhibition of human SN12C cells assessed as cell growth at 10^-5 M incubated for 48 hrs by sulforhodamine B assay relative to control. It is filed as cell-based. Also on record: scale not given: the % may be the effect or the level left. The note with it: 10 µM.
The test system of data set [1] is Mycobacterium tuberculosis. In words: Potency index, ratio of isoniazid MIC to compound MIC for antitubercular activity against Mycobacterium tuberculosis RCMB 010126 clinical isolate. The data set is classed as functional.
The test system of another data set is HOP-92. Put plainly: Growth inhibition of human HOP92 cells assessed as cell growth at 10^-5 M incubated for 48 hrs by sulforhodamine B assay relative to control. It is filed as cell-based. On the set-up: scale not given: the % may be the effect or the level left. The note with it: hop-92, 48 h, 10 µM.
The next data set has as its system SW-620. Put plainly: Growth inhibition of human SW620 cells assessed as cell growth at 10^-5 M incubated for 48 hrs by sulforhodamine B assay relative to control. The data set is classed as cell-based. On the set-up: scale not given: the % may be the effect or the level left. As to conditions: sw-620, 48 h, 10 µM.
A further data set has as its system RXF 393. Put plainly: Growth inhibition of human RXF393 cells assessed as cell growth at 10^-5 M incubated for 48 hrs by sulforhodamine B assay relative to control. It is filed as cell-based. On the set-up: scale not given: the % may be the effect or the level left. The note with it: rxf 393, 48 h, 10 µM.
The next data set has as its system Pseudomonas aeruginosa. In words: Antibacterial activity against Pseudomonas aeruginosa RCMB 010043 assessed as diameter of zone inhibition after 24 hrs by agar well diffusion assay. The data set is classed as functional. (Agar diffusion results depend on both activity and mobility in agar.)
Data set [2] deals with Aspergillus fumigatus. In words: Potency index, ratio of amphotericin B MIC to compound MIC for antifungal activity against Aspergillus fumigatus RCMB 02568. It is filed as functional.
For a further data set, the system named is Staphylococcus aureus. In words: Antibacterial activity against methicillin-resistant Staphylococcus aureus ATCC 33592 after 24 hrs by serial dilution method. It is filed as functional. The note with it: ATCC 33592, 24 h.
In a further data set the test system is Enterococcus faecium. In words: Antibacterial activity against vancomycin-resistant Enterococcus faecium ATCC 700221 after 24 hrs by serial dilution method. It is filed as functional. The note with it: ATCC 700221, 24 h.
For data set [3], the system named is Aspergillus fumigatus. Put plainly: Potency index, ratio of amphotericin B MIC to compound MIC for Aspergillus fumigatus RCMB 02568. The data set is classed as functional.

Converted amounts (≈) assume the structure as drawn.

For `CCOC(=O)c1sc(/N=C2\NC(=O)/C(=C3/C(=O)N(Cc4ccccc4)c4ccc(Cl)cc43)S2)nc1C`, the Activity in the data set with HCT-15 was found to be 100.31%; with SN12C, 102.35%; with HOP-92, 92.11%; in the data set with SW-620, 98.41%; in the data set on RXF 393, 105.33%. The Ratio in data set [1] worked out at 2. The “diameter of the inhibition zone (DIZ)” value in the data set with Pseudomonas aeruginosa is recorded as 22.3 mm.
Take `CC(=O)c1sc(/N=C2\NC(=O)/C(=C3/C(=O)N(C)c4ccc(Cl)cc43)S2)nc1C`: the Activity in the data set with HCT-15 is listed as 101.97%; in the data set with SN12C it was 96.85%; in the data set on HOP-92 it was 95.24%; in the data set with SW-620, 119.01%; in the data set on RXF 393, 106.08%. Besides, the Ratio (with Aspergillus fumigatus [2]; in the data set on Aspergillus fumigatus [3]; in data set [1]) was 2 in each case. Further, the minimum inhibitory concentration (MIC) against Staphylococcus aureus was 3.9 µg/mL (≈ 9.01 µM); against Enterococcus faecium, 7.81 µg/mL (≈ 18 µM). In addition, the “diameter of the inhibition zone (DIZ)” value in the data set on Pseudomonas aeruginosa is reported as 22.2 mm.
